Results reported in paper PMC8317135 (Journal of medicinal chemistry, 2021).

Assay: Aqueous solubility

O=C(O)c1cc(-c2ccc(NC(=O)C3CCNCC3)cc2)cc(-n2cc(-c3ccc(C(F)(F)F)cc3)nn2)c1 [Compound 11, 4′-(Piperidine-4-carboxamido)-5-(4-(4-(trifluoromethyl)phenyl)-1H-1,2,3-triazol-1-yl)-[1,1′-biphenyl]-3-carboxylic Acid]
solubility in aqueous medium in words: poorly soluble in aqueous medium
